Values after ≈ are worked out from the molar mass of the structure shown. Where two headings read alike, the source gives them in different places.
Key:
Test in all cases: agar serial dilution test, minimum inhibitory concentration
Format in all cases: cell-based
[1] = system: escherichia coli
Text: (§1) The compounds of this invention are useful for the treatment of bacterial infections amenable to treatment by cephalosporins. […] In accordance with the results obtained with the antibacterial compounds of this invention, their usefulness is established in the fields of comparative pharmacology and microbiology for the purpose of inhibiting the growth of undesirable bacterial colonies. […]

[2] = system: salmonella paratyphi; settings: Salmonella enterica, read-out: Minimum Inhibitory Concentration
Text: as §1

[3] = system: Staphylococcus aureus; settings: Staphylococcus aureus
Text: as §1

[4] = system: klebsiella pneumoniae
Text: as §1

[5] = system: proteus vulgaris
Text: as §1

[6] = system: bacillus subtilis; settings: Bacillus subtilis; BA SU strain 6633
Text: as §1

[7] = system: bordetella brochiseptica; settings: BO BR strain 4617
Text: as §1

[8] = system: neisseria catarrhalis; settings: NE CA strain 8193, read-out: Minimum Inhibitory Concentration
Text: as §1

[9] = system: herellea species; settings: HE SP strain 9955
Text: (§2) The compounds of this invention are useful for the treatment of bacterial infections amenable to treatment by cephalosporins. […] In accordance with the results obtained with the antibacterial compounds of this invention, their usefulness is established in the fields of comparative pharmacology and microbiology for the purpose of inhibiting the growth of undesirable bacterial colonies.
(§3) The nmr spectra described in the following examples pertains to the spectra obtained upon exchanging acidic hydrogens with deuterium and are described in ppm (δ). The small amount of water and/or solvent carried into the products is readily removed by gently heating the material under vacuum. […]

[10] = system: pseudomones aeruginosa; settings: PS AE strain 10145
Text: as §2, §3

[11] = KL PN strain 10031, read-out: Minimum Inhibitory Concentration
[12] = read-out: Minimum Inhibitory Concentration
[13] = PR VU strain 6896, read-out: Minimum Inhibitory Concentration

For `C=CCSC(=NC#N)SCC(=O)N[C@@H]1C(=O)N2C(C(=O)O)=C(COC(C)=O)CS[C@H]12` [Example 19, 7-[2-[(cyanoimino)(2-propenylthio)methylthio]acetamido]cephalosporanic acid], the MIC ([1]; ES CO strain 920) was 250 µg/mL (≈ 531 µM), the MIC ([1]; ES CO strain 9637) was 250 µg/mL (≈ 531 µM) and the MIC [2] was 31.3 µg/mL (≈ 66.5 µM). It also gave an MIC ([3]; ST AU strain 53-180) of 3.9 µg/mL (≈ 8.29 µM), an MIC ([3]; ST AU strain 6538P) of 1.95 µg/mL (≈ 4.14 µM) and an MIC ([3]; ST AU strain CHP) of 7.81 µg/mL (≈ 16.6 µM). It also gave an MIC ([3]; ST AU strain Smith) of 1.95 µg/mL (≈ 4.14 µM), an MIC [4, 11] of 125 µg/mL (≈ 266 µM) and an MIC [5, 12] of 31.3 µg/mL (≈ 66.5 µM). It also gave an MIC [6] of 0.488 µg/mL (≈ 1.04 µM), an MIC [7] of 125 µg/mL (≈ 266 µM) and an MIC [8] of 250 µg/mL (≈ 531 µM).
Compound `CCOC(=O)CSC(SCC(=O)N[C@@H]1C(=O)N2C(C(=O)O)=C(COC(C)=O)CS[C@H]12)=C(C#N)C(N)=O` [Example 4] has an MIC ([1]; ES CO strain 9637) of 250 µg/mL (≈ 448 µM), an MIC [2] of 62.5 µg/mL (≈ 112 µM) and an MIC ([3]; ST AU strain 53-180) of 1.95 µg/mL (≈ 3.49 µM). It also gave an MIC ([3]; ST AU strain 6538P) of 0.488 µg/mL (≈ 0.874 µM), an MIC ([3]; ST AU strain CHP) of 3.9 µg/mL (≈ 6.98 µM) and an MIC ([3]; ST AU strain Smith) of 0.488 µg/mL (≈ 0.874 µM). The MIC [4, 11] was 125 µg/mL (≈ 224 µM), the MIC [5, 13] was 125 µg/mL (≈ 224 µM) and the MIC [6] was 0.061 µg/mL (≈ 0.109 µM). For the same compound, the MIC [8] was 3.9 µg/mL (≈ 6.98 µM).
Compound `CSC(=NC#N)SCC(=O)N[C@@H]1C(=O)N2C(C(=O)O)=C(COC(C)=O)CS[C@H]12` [Example 5] has an MIC ([1]; ES CO strain 920) of 250 µg/mL (≈ 562 µM), an MIC [2] of 31.3 µg/mL (≈ 70.4 µM) and an MIC ([3]; ST AU (ditto mark) strain 9637 (so in the source)) of 125 µg/mL (≈ 281 µM). The MIC ([3]; ST AU strain 53-180) was 3.9 µg/mL (≈ 8.77 µM), the MIC ([3]; ST AU strain 6538P) was 1.95 µg/mL (≈ 4.39 µM) and the MIC ([3]; ST AU strain CHP) was 7.81 µg/mL (≈ 17.6 µM). The MIC ([3]; ST AU strain Smith) was 0.976 µg/mL (≈ 2.2 µM), the MIC [4, 11] was 125 µg/mL (≈ 281 µM) and the MIC [5, 13] was 62.5 µg/mL (≈ 141 µM). The MIC [6] was 0.976 µg/mL (≈ 2.2 µM), the MIC [7] was 125 µg/mL (≈ 281 µM) and the MIC [8] was 250 µg/mL (≈ 562 µM).
`CC(=O)OCC1=C(C(=O)O)N2C(=O)[C@@H](NC(=O)CSC(=NS(C)(=O)=O)SCC#N)[C@H]2SC1` [Example 14, 7-[2-[(cyanomethylthio)(methylsulfonylimino)methylthio]acetamido)cephalosporanic acid] was tested, and the MIC ([1]; ES CO strain 920) was 125 µg/mL (≈ 239 µM), the MIC ([1]; ES CO strain 9637) was 125 µg/mL (≈ 239 µM) and the MIC [2] was 15.6 µg/mL (≈ 29.9 µM). For the same compound, the MIC ([3]; ST AU strain 53-180) was 7.81 µg/mL (≈ 14.9 µM), the MIC ([3]; ST AU strain 6538P) was 1.95 µg/mL (≈ 3.73 µM) and the MIC ([3]; ST AU strain CHP) was 7.81 µg/mL (≈ 14.9 µM). It also gave an MIC ([3]; ST AU strain Smith) of 1.95 µg/mL (≈ 3.73 µM), an MIC [4, 11] of 31.3 µg/mL (≈ 59.9 µM) and an MIC [5, 13] of 31.3 µg/mL (≈ 59.9 µM). The MIC [6] was 0.244 µg/mL (≈ 0.467 µM), the MIC [7] was 62.5 µg/mL (≈ 120 µM) and the MIC [8] was 125 µg/mL (≈ 239 µM). It also gave an MIC [9] of 250 µg/mL (≈ 478 µM) and an MIC [10] of 125 µg/mL (≈ 239 µM).
With `CC(=O)OCC1=C(C(=O)O)N2C(=O)[C@@H](NC(=O)CSC(=NC#N)SCc3ccccc3)[C@H]2SC1` [Example 10, 7-[2-[ (cyanoimino) (phenylmethylthio)methylthio]acetamido]cephalosporanic acid] the MIC ([1]; ES CO strain 920) was 62.5 µg/mL (≈ 120 µM), the MIC ([1]; ES CO strain 9637) was 15.6 µg/mL (≈ 30 µM) and the MIC [2] was 3.9 µg/mL (≈ 7.49 µM). The MIC ([3]; ST AU strain 53-180) was 1.95 µg/mL (≈ 3.75 µM), the MIC ([3]; ST AU strain 6538P) was 0.976 µg/mL (≈ 1.87 µM) and the MIC ([3]; ST AU strain CHP) was 3.9 µg/mL (≈ 7.49 µM). For the same compound, the MIC ([3]; ST AU strain Smith) was 0.976 µg/mL (≈ 1.87 µM), the MIC [4, 11] was 15.6 µg/mL (≈ 30 µM) and the MIC [5, 13] was 15.6 µg/mL (≈ 30 µM). For the same compound, the MIC [6] was 0.122 µg/mL (≈ 0.234 µM), the MIC [7] was 15.6 µg/mL (≈ 30 µM) and the MIC [8] was 62.5 µg/mL (≈ 120 µM).
`CC(=O)OCC1=C(C(=O)O)N2C(=O)[C@@H](NC(=O)CSC(=NC#N)SCC(=O)O)[C@H]2SC1` [Example 15, 7-[2-[(cyanoimino)(2-hydroxy-2-oxoethylthio)methylthio]acetamido]cephalosporanic acid] showed an MIC [2] of 125 µg/mL (≈ 256 µM), an MIC ([3]; ST AU strain 6538P) of 15.6 µg/mL (≈ 31.9 µM) and an MIC ([3]; ST AU strain CHP) of 62.5 µg/mL (≈ 128 µM). The MIC ([3]; ST AU strain Smith) was 7.81 µg/mL (≈ 16 µM), the MIC [4, 11] was 250 µg/mL (≈ 512 µM) and the MIC [5, 12] was 125 µg/mL (≈ 256 µM). For the same compound, the MIC [6] was 1.95 µg/mL (≈ 3.99 µM).
`C#CCSC(=NC#N)SCC(=O)N[C@@H]1C(=O)N2C(C(=O)O)=C(COC(C)=O)CS[C@H]12` [Example 17, 7-[2-[(cyanoimino) (2-propynylthio)methylthio]acetamido]cephalosporanic acid] gave an MIC ([1]; ES CO strain 920) of 62.5 µg/mL (≈ 133 µM), an MIC ([1]; ES CO strain 9637) of 31.3 µg/mL (≈ 66.8 µM) and an MIC [2] of 7.81 µg/mL (≈ 16.7 µM). It also gave an MIC ([3]; ST AU strain 53-180) of 3.9 µg/mL (≈ 8.32 µM), an MIC ([3]; ST AU strain 6538P) of 0.488 µg/mL (≈ 1.04 µM) and an MIC ([3]; ST AU strain CHP) of 3.9 µg/mL (≈ 8.32 µM). The MIC ([3]; ST AU strain Smith) was 0.488 µg/mL (≈ 1.04 µM), the MIC [4, 12] was 7.81 µg/mL (≈ 16.7 µM) and the MIC [5, 13] was 62.5 µg/mL (≈ 133 µM). The MIC [6] was 0.122 µg/mL (≈ 0.26 µM) and the MIC [8] was 125 µg/mL (≈ 267 µM).
With `CC(=O)OCC1=C(C(=O)O)N2C(=O)[C@@H](NC(=O)CSC(=NC#N)SCc3ccc(Cl)cc3)[C@H]2SC1` [Example 18, 7-[2-[(4-Chlorophenylmethylthio) (cyanoimino)methylthio]acetamido]cephalosporanic acid] the MIC ([1]; ES CO strain 920) was 250 µg/mL (≈ 450 µM), the MIC ([1]; ES CO strain 9637) was 250 µg/mL (≈ 450 µM) and the MIC [2] was 31.3 µg/mL (≈ 56.4 µM). The MIC ([3]; ST AU strain 53-180) was 3.9 µg/mL (≈ 7.03 µM), the MIC ([3]; ST AU strain 6538P) was 1.95 µg/mL (≈ 3.51 µM) and the MIC ([3]; ST AU strain CHP) was 7.81 µg/mL (≈ 14.1 µM). It also gave an MIC ([3]; ST AU strain Smith) of 1.95 µg/mL (≈ 3.51 µM), an MIC [4, 11] of 125 µg/mL (≈ 225 µM) and an MIC [5, 13] of 62.5 µg/mL (≈ 113 µM). It also gave an MIC [6] of 0.488 µg/mL (≈ 0.879 µM), an MIC [7] of 125 µg/mL (≈ 225 µM) and an MIC [8] of 250 µg/mL (≈ 450 µM).

Source: patent publication US3956291A, “7-Thioacetamido cephalosporanic acid derivatives” (American Home Products Corporation, priority 1974, dated 1976)
